The source of these data is ChEMBL document CHEMBL4414610, “Constituents from the Leaves of Tetraena mongolica and Their Protective Activity in HEK 293t Cells Damaged by CdCl2” (J Nat Prod, 2019).

Activity calls are given as the source filed them. The calls are words filed in the database; no cut-off is given here.

Assay [1] deals with HEK-293T. The experiment in a line: Cytoprotective activity against CdCl2-induced cell death in human HEK293T cells at 25 to 100 uM preincubated for 2 hrs followed by CdCl2 treatment and measured after 12 hrs by MTT assay. Format: functional, cell-based.
In assay [2] the test system is HEK-293T. The assay can be described thus: Cytoprotective activity against CdCl2-induced cell death in human HEK293T cells assessed as increase in cell viability preincubated for 2 hrs followed by CdCl2 treatment and measured after 48 hrs by MTT assay. The format is functional, cell-based. (Formazan colour is commonly taken as a measure of viable cells.)

Take `CC1=CC(=O)CC(C)(C)[C@@]1(O)/C=C/[C@@H](C)O[C@@H]1O[C@H](CO)[C@@H](O)[C@H](O)[C@H]1O` [6S,9R-ROSEOSIDE]: in assay [1], the outcome was Active. Besides, in assay [2], the IC50 – broadly, the concentration at which inhibition is half-maximal – was 55.7 µM. With `C[C@H](/C=C/[C@@]1(O)[C@H](C)CC(=O)CC1(C)C)O[C@@H]1O[C@H](CO)[C@@H](O)[C@H](OS(=O)(=O)O)[C@H]1O`, the outcome in assay [1] was Active. For the molecule `C[C@H](CCc1ccc(O)cc1)O[C@@H]1O[C@H](CO)[C@@H](O)[C@H](OS(=O)(=O)O)[C@H]1O`, the outcome in assay [1] was Active. On to `COc1cc(-c2oc3cc(O)cc(O)c3c(=O)c2O[C@@H]2O[C@H](CO[C@@H]3O[C@@H](C)[C@H](O)[C@@H](O)[C@H]3O)[C@@H](O)[C@H](O)[C@H]2O)ccc1O`, for which the outcome in assay [1] was Active. As for `CC1=CC(=O)CC(C)(C)[C@@]1(O)/C=C/[C@@H](C)O[C@@H]1O[C@H](CO)[C@@H](O)[C@H](OS(=O)(=O)O)[C@H]1O`, the result in assay [1] was Active.

As to `O=c1c(O[C@@H]2O[C@H](CO)[C@@H](O)[C@H](O)[C@H]2O)c(-c2ccc(O)c(O)c2)oc2cc(O)cc(O)c12`, the result in assay [1] was Active. Consider `OC[C@H]1O[C@@H](OCc2ccccc2)[C@H](O)[C@@H](O)[C@@H]1O`, for which, in assay [1], the outcome was Active. Also, the IC50 in assay [2] came out at 80.3 µM. In the case of `C[C@@H]1O[C@@H](OC[C@H]2O[C@@H](Oc3c(-c4ccc(O)c(O)c4)oc4cc(O)cc(O)c4c3=O)[C@H](O)[C@@H](O)[C@@H]2O)[C@H](O)[C@H](O)[C@H]1O`, in assay [1], the result was Active.
